Test results taken from patent US12702676B2, “Fosfomycin dosing regimens” (priority 2017, dated 2026).
Converted amounts (≈) assume the structure as drawn. Like-named read-outs stand apart in the source and are kept apart here.

How the values were obtained:
[1] = Pharmacokinetics in specific populations (hemodialysis, hepatic, demographics); assay type: in vivo, human
[2] = tested on: Enterobacteriaceae isolates; conditions: 1,021 Enterobacteriaceae isolates collected from US medical centers; cited from earlier work
[3] = tested on: acute pyelonephritis pathogens; conditions: Ode et al. study; dosing regimen 8 g bid; cited from earlier work
Enterobacteriaceae [4] = conditions: cited from earlier work; for Total-drug AUC:MIC ratio target: Enterobacteriaceae; for Median total-drug AUC:MIC ratio target: neutropenic murine-thigh infection model (Lepak et al.)
[5] = Population PK analysis of ZTI-01, pooled Phase 1 healthy subjects and Phase 2/3 cUTI/AP patients; assay type: in vivo, human; conditions: for Baseline CLcr50 / Hill coefficient: CL model
Source text: Methods: Two clinical studies have been conducted as part of the development of ZTI-01: a Phase 1 study in healthy subjects (ZTI-01-NIH13-0064) and a Phase 2/3 study in hospitalized patients with complicated urinary tract infections (ZTI-01-200). A PPK model, originally developed using Phase 1 data and an empirical relationship between FOS clearance (CLt) and creatinine clearance (CLcr) [Microbe 2017 Abstr. P1134], was refined using pooled data from healthy subjects and patients with cUTI, including acute pyelonephritis.
The PPK model was developed in NONMEM 7.2. In the Phase 1 study, 28 healthy subjects who received ZTI-01 as single (1 and 8 g infused over 1 hour) IV doses in crossover fashion provided plasma and urine samples for FOS concentration determination over 24 hours. Patients from the Phase 2/3 study (ZEUS, NCT02753946) received ZTI-01 at 6 g every 8 hours, with dosage adjustment for patients with renal impairment (adjusted for CLcr≤50 mL/min). Blood samples for PK (n=5 per patient) were collected on Day 1 and on either Days 3, 4, or 5. Model development involved refinement of the previous CLt:CLcr relationship using the pooled data and a full covariate analysis to identify other patient descriptors associated with the interindividual variability (IIV) in FOS PK. Model qualification included standard goodness-of-fit metrics and visual predictive check plots.
For the PPK model refinement, previous structural population PK model was fit to the pooled Phase 1 and 2/3 data. Covariate analyses were conducted using forward selection and backward elimination. The final model was qualified using visual predictive checks and non-parametric bootstrap procedures. Individual, post-hoc fosfomycin exposures were calculated for each patient using predicted plasma fosfomycin concentration-time data for the first 48 hours of therapy.

Enterobacteriaceae [6] = experiment: Non-clinical total-drug % T>RIC targets for efficacy
Source text: Emphasis was placed on the assessment of PK-PD target attainment results for AUC:MIC ratio and % T>RIC targets associated with net bacterial stasis.

[7] = tested on: Acinetobacter baumannii-calcoaceticus complex; experiment: Case treated with the dosing regimen of the invention; assay type: in vivo; conditions: one case
Source text: In addition to the above list, it was also observed that the dosing regimen of the present invention provided beneficial results for two uncommon and rarely treated strains. In one case, the dosing regimen of the present invention was used to administer appropriate dosages of fosfomycin, resulting in the eradication of the often resistant, Gram negative Acinetobacter baumannii-calcoaceticus complex.

[8] = tested on: Raoultella ornithinolytica; experiment: Case treated with the dosing scheme of the invention; assay type: in vivo; conditions: one case
[9] = 1-log10 CFU reduction from baseline
[10] = final population PK model estimate

SMILES: C[C@@H]1O[C@@H]1P(=O)(O)O [fosfomycin]
- fosfomycin dose removed by hemodialysis ([1]; administered prior to hemodialysis in patients on periodic or chronic hemodialysis): 61-79%
- differences in pharmacokinetics based on sex, body weight/body surface area, race/ethnicity or age ([1]; age 18 to 89 years, adjusted for renal function): No clinically significant differences
- metabolism through the liver ([1]; in vivo): not metabolized through the liver
- MIC50 [2]: 4 µg/mL (≈ 29 µM)
- MIC90 [2]: 16 µg/mL (≈ 116 µM)
- effective (patients with AP) [3]: 44%
- Total-drug AUC:MIC ratio target (Enterobacteriaceae [4]; [9]): 41.6
- Median total-drug AUC:MIC ratio target (Enterobacteriaceae [4]; 1 log10 CFU reduction from baseline): 41.6
- Total-drug AUC:MIC ratio target (Enterobacteriaceae [4]; Net bacterial stasis): 19.1
- Median total-drug AUC:MIC ratio target (Enterobacteriaceae [4]; Net bacterial stasis): 19.1
- Baseline CLcr50 ([5]; bootstrap mean (N = 200)): 66.3 mL/min/1.73 m^2
- Hill coefficient ([5]; bootstrap mean (N = 200)): 2.6
- Baseline CLcr50 ([5]; bootstrap median (N = 200)): 65.6 mL/min/1.73 m^2
- Hill coefficient ([5]; bootstrap median (N = 200)): 2.59
- Baseline CLcr50 [5, 10]: 65 mL/min/1.73 m^2
- Hill coefficient [5, 10]: 2.56
- CLd1 Coefficient ([5]; bootstrap mean (N = 200)): 4.36 L/h
- CLd1 Proportional increase for AP and cUTI patients ([5]; bootstrap mean (N = 200)): 1.28
- CLd2 Coefficient ([5]; bootstrap mean (N = 200)): 0.351 L/h
- CLe maximum ([5]; bootstrap mean (N = 200)): 9.02 L/h
- Covariance between CL and Vc ([5]; bootstrap mean (N = 200)): 0.0707
- Covariance between CL and Vp1 ([5]; bootstrap mean (N = 200)): 0.134
- Covariance between CLd1 and Vp1 ([5]; bootstrap mean (N = 200)): 0.173
- Plasma Residual variability (σ^2) CCV component ([5]; bootstrap mean (N = 200)): 0.0196
- Urine Residual variability (σ^2) CCV component ([5]; bootstrap mean (N = 200)): 0.0793
- Vc Coefficient ([5]; bootstrap mean (N = 200)): 17.7 L
- Vc-BSA power ([5]; bootstrap mean (N = 200)): 1.72
- Vp1-BSA power ([5]; bootstrap mean (N = 200)): 2.73
- Vp1 Coefficient ([5]; bootstrap mean (N = 200)): 6.11 L
- Vp1 Proportional increase for AP and cUTI patients ([5]; bootstrap mean (N = 200)): 0.721
- Vp2 Coefficient ([5]; bootstrap mean (N = 200)): 1.74 L
- ω^2 for Vc ([5]; bootstrap mean (N = 200)): 0.174
- ω^2 for Vp1 ([5]; bootstrap mean (N = 200)): 0.516
- ω^2 tor CLd1 ([5]; bootstrap mean (N = 200)): 0.203
- CLd1 Coefficient ([5]; bootstrap median (N = 200)): 4.2 L/h
- CLd1 Proportional increase for AP and cUTI patients ([5]; bootstrap median (N = 200)): 1.15
- CLd2 Coefficient ([5]; bootstrap median (N = 200)): 0.346 L/h
- CLe maximum ([5]; bootstrap median (N = 200)): 8.87 L/h
- Covariance between CL and Vc ([5]; bootstrap median (N = 200)): 0.0704
- Covariance between CL and Vp1 ([5]; bootstrap median (N = 200)): 0.131
- Covariance between CLd1 and Vp1 ([5]; bootstrap median (N = 200)): 0.166
- Plasma Residual variability (σ^2) CCV component ([5]; bootstrap median (N = 200)): 0.0194
- Urine Residual variability (σ^2) CCV component ([5]; bootstrap median (N = 200)): 0.079
- Vc Coefficient ([5]; bootstrap median (N = 200)): 17.7 L
- Vc-BSA power ([5]; bootstrap median (N = 200)): 1.7
- Vp1-BSA power ([5]; bootstrap median (N = 200)): 2.73
- Vp1 Coefficient ([5]; bootstrap median (N = 200)): 6.03 L
- Vp1 Proportional increase for AP and cUTI patients ([5]; bootstrap median (N = 200)): 0.706
- Vp2 Coefficient ([5]; bootstrap median (N = 200)): 1.72 L
- ω^2 for Vc ([5]; bootstrap median (N = 200)): 0.172
- ω^2 for Vp1 ([5]; bootstrap median (N = 200)): 0.508
- ω^2 tor CLd1 ([5]; bootstrap median (N = 200)): 0.199
- CLd1 Coefficient [5, 10]: 4.15 L/h
- CLd1 Proportional increase for AP and cUTI patients [5, 10]: 1.24
- CLd2 Coefficient [5, 10]: 0.349 L/h
- CLe maximum [5, 10]: 8.87 L/h
- Covariance between CL and Vc [5, 10]: 0.07213
- Covariance between CL and Vp1 [5, 10]: 0.1296
- Covariance between CLd1 and Vp1 [5, 10]: 0.1853
- Plasma Residual variability (σ^2) CCV component [5, 10]: 0.0195
- Urine Residual variability (σ^2) CCV component [5, 10]: 0.0795
- Vc Coefficient [5, 10]: 17.6 L
- Vc-BSA power [5, 10]: 1.76
- Vp1-BSA power [5, 10]: 2.72
- Vp1 Coefficient [5, 10]: 5.99 L
- Vp1 Proportional increase for AP and cUTI patients [5, 10]: 0.729
- Vp2 Coefficient [5, 10]: 1.73 L
- ω^2 for Vc [5, 10]: 0.175
- ω^2 for Vp1 [5, 10]: 0.502
- ω^2 tor CLd1 [5, 10]: 0.215
- Cmin ([5]; geometric mean, infected Phase 2/3 patients (n = 214), ZTI-01-200, population PK model fit): 30.0 µg/mL
- Cmax ([5]; human, in vivo, 6 g, geometric mean, infected Phase 2/3 patients (n = 214), ZTI-01-200, population PK model fit): 364 µg/mL
- clearance ([5]; human, in vivo, 6 g, geometric mean, infected Phase 2/3 patients (n = 214), ZTI-01-200, population PK model fit, read-out: CL (converted)): 99.7 mL/min
- Vd ([5]; human, in vivo, 6 g, geometric mean, infected Phase 2/3 patients (n = 214), ZTI-01-200, population PK model fit, read-out: VSS): 30.9 L
- half-life ([5]; human, in vivo, 6 g, geometric mean, infected Phase 2/3 patients (n = 214), ZTI-01-200, population PK model fit, read-out: t1/2, α (converted)): 0.402 h
- half-life ([5]; human, in vivo, 6 g, geometric mean, infected Phase 2/3 patients (n = 214), ZTI-01-200, population PK model fit, read-out: t1/2, β (converted)): 2.67 h
- half-life ([5]; human, in vivo, 6 g, geometric mean, infected Phase 2/3 patients (n = 214), ZTI-01-200, population PK model fit, read-out: t1/2, γ (converted)): 4.99 h
- AUC(0-t) ([5]; human, in vivo, 6 g, geometric mean, infected Phase 2/3 patients (n = 214), ZTI-01-200, doses by baseline renal function, population PK model fit, read-out: AUC0-24): 2490 µg·h/mL
- clearance ([5]; human, in vivo, bootstrap mean (N = 200), read-out: Non-renal CL (converted)): 27 mL/min
- clearance ([5]; human, in vivo, bootstrap median (N = 200), read-out: Non-renal CL (converted)): 27.2 mL/min
- clearance ([5]; human, in vivo, final population PK model estimate, read-out: Non-renal CL (converted)): 26.8 mL/min
- Total-drug % T > RIC target (Enterobacteriaceae [6]; [9]): 20.9%
- Total-drug % T > RIC target (Enterobacteriaceae [6]; 2-log10 CFU reduction from baseline): 32.8%
- Total-drug % T > RIC target (Enterobacteriaceae [6]; Net bacterial stasis): 11.9%
- outcome against Acinetobacter baumannii-calcoaceticus complex [7]: eradication
- outcome against Raoultella ornithinolytica [8]: successfully eradicated
